Results as given in publication PMC3558798 (British Journal of Clinical Pharmacology, 2012).
Read-outs that look alike come from different tables or passages of the source. Values belong to the compound of their own block, whether it stands above or below them.

Key:
prothrombin time (PT) = test: Food effect study: PT; format: in vivo, human; details: 3 h after 10 mg oral tablet
[1] = tested on: international normalized ratio (INR); test: Food effect study: INR; format: in vivo, human; details: for INR Mean (SD) change from baseline: 3 h after 10 mg oral tablet
[2] = Single ascending-dose study: template bleeding time; format: in vivo, human; details: between pre-dose and 3.5 h post-dose
[3] = oral; cited from earlier work
[4] = tested on: activated partial thromboplastin time (aPTT); test: Single ascending-dose study: aPTT; format: in vivo, human
thromboembolic events = details: patients who had received total knee or hip replacement surgery; cited from earlier work
[5] = Food effect study: safety assessments; format: in vivo, human
[6] = 10 mg, high fat, high calorie meal vs fasted
[7] = tested on: international normalized ratio (INR); test: Single ascending-dose study: INR; format: in vivo, human; details: for mean maximum INR: 0–24 h post-dose
clinical [8] = details: human, plasma, oral, 10 mg; for AUC(0-t): AUC(0,t) Adjusted geometric mean; for AUC(0-inf): AUC(0,∞) Adjusted geometric mean; for Cmax: Cmax Adjusted geometric mean
clinical [9] = details: human, plasma; for half-life: oral; for AUC(0-inf) / AUC(0-t) / Cmax / Tmax: po; for Tmax: Median tmax, range over doses
[10] = Single ascending-dose study: safety assessments; format: in vivo, human
venous thrombosis = details: at doses that preserved haemostasis; cited from earlier work
[11] = tested on: modified prothrombin time (mPT); test: Single ascending-dose study: modified prothrombin time; format: in vivo, human
[12] = tested on: activated partial thromboplastin time (aPTT); test: Food effect study: aPTT; format: in vivo, human; details: 3 h after 10 mg oral tablet
[13] = high calorie, high fat breakfast; cited from earlier work
[14] = cited from earlier work
[15] = single 10 mg dose following standard high calorie, high fat meal
[16] = single 20 mg dose following a similar meal

change in template bleeding time [2]: ≤ 1 min
increase in median tmax with food [6]: 1 h
AUC(0-t) (clinical [8]; 10 mg fasted): 1730 ng·h/mL
AUC(0-t) (clinical [8]; 10 mg fed): 1810 ng·h/mL
AUC(0-inf) (clinical [8]; 10 mg fasted): 1790 ng·h/mL
AUC(0-inf) (clinical [8]; 10 mg fed): 1870 ng·h/mL
Cmax (clinical [8]; 10 mg fasted): 151 ng/mL
Cmax (clinical [8]; 10 mg fed): 165 ng/mL
half-life (clinical [8]; half-life, food effect study): ~11.5 h
half-life (clinical [9]; 10 mg, half-life, single doses, overall conclusion): ~12 h
half-life (clinical [9]; t1/2, range, doses that provided sufficient data to characterize the terminal elimination phase (i.e. 5–50 mg)): 7 to 27 h
AUC(0-inf) (clinical [9]; 0.5 mg): 61.9 ng·h/mL
AUC(0-t) (clinical [9]; 0.5 mg): 52.7 ng·h/mL
Cmax (clinical [9]; 0.5 mg): 9.1 ng/mL
AUC(0-inf) (clinical [9]; 1 mg): 174 ng·h/mL
AUC(0-t) (clinical [9]; 1 mg): 163 ng·h/mL
Cmax (clinical [9]; 1 mg): 23.5 ng/mL
AUC(0-inf) (clinical [9]; 2.5 mg): 438 ng·h/mL
AUC(0-t) (clinical [9]; 2.5 mg): 421 ng·h/mL
Cmax (clinical [9]; 2.5 mg): 52.5 ng/mL
AUC(0-inf) (clinical [9]; 5 mg): 1020 ng·h/mL
AUC(0-t) (clinical [9]; 5 mg): 977 ng·h/mL
Cmax (clinical [9]; 5 mg): 105 ng/mL
AUC(0-inf) (clinical [9]; 10 mg): 1300 ng·h/mL
AUC(0-t) (clinical [9]; 10 mg): 1270 ng·h/mL
Cmax (clinical [9]; 10 mg): 176 ng/mL
AUC(0-inf) (clinical [9]; 25 mg): 4010 ng·h/mL
AUC(0-t) (clinical [9]; 25 mg): 3870 ng·h/mL
Cmax (clinical [9]; 25 mg): 365 ng/mL
AUC(0-inf) (clinical [9]; 50 mg): 7560 ng·h/mL
AUC(0-t) (clinical [9]; 50 mg): 7100 ng·h/mL
Cmax (clinical [9]; 50 mg): 685 ng/mL
Tmax (clinical [9]; oral solution (0.5–2.5 mg)): 1.5 to 1.8 h
Tmax (clinical [9]; oral tablet (5–50 mg)): 2.5 to 3.3 h
Inter-subject variability, %CV for Cmax and AUC (across all doses, regardless of formulation): approximately 30%
Compound: COc1ccc(-n2nc(C(N)=O)c3c2C(=O)N(c2ccc(N4CCCCC4=O)cc2)CC3)cc1 [apixaban, 1-(4-methoxyphenyl)-7-oxo-6-(4-(2-oxopiperidin-1-yl)phenyl)-4,5,6,7-tetrahydro-1H -pyrazolo[3,4-c]pyridine-3-carboxamide]
PT Mean (SD) (prothrombin time (PT); fasted, n = 23): 14.99 (1.24)
PT Mean (SD) change from baseline (prothrombin time (PT); fasted, n = 23): 1.39 (0.89)
PT Mean (SD) (prothrombin time (PT); fed, n = 22): 14.66 (0.97)
PT Mean (SD) change from baseline (prothrombin time (PT); fed, n = 22): 1.30 (0.85)
individual INR (highest) ([1]; 10 mg, fed and fasted): ≤ 2.0
time for INR, aPTT and PT to return to baseline ([1]; 10 mg, fed and fasted): ≤ 24 h
INR Mean (SD) change from baseline ([1]; fasted, n = 23): 0.23 (0.13)
INR Mean (SD) change from baseline ([1]; fed, n = 22): 0.20 (0.12)
bioavailability [3]: ~50%
mean % change from baseline in maximum aPTT ([4]; 25 mg dose): 25.7%
mean maximum aPTT ([4]; 25 mg dose, baseline 30.4 s): 38.2 s
mean % change from baseline in maximum aPTT ([4]; 50 mg dose): 23.1%
mean maximum aPTT ([4]; 50 mg dose, baseline 28.6 s): 35.1 s
peak aPTT increase from baseline ([4]; after a 50 mg dose): 1.2 fold
prevention of thromboembolic events vs enoxaparin 40 mg daily (thromboembolic events): superior to enoxaparin
elevated alanine transaminase level ([5]; one subject, discontinued, 10 mg): 3 × upper limit of normal [ULN]
elevations in aspartate aminotransferase and gamma-glutamyl transferase levels ([5]; same one subject, 10 mg): < 2 × ULN
bleeding-related AEs ([5]; single 10 mg doses): no bleeding-related AEs
serious AEs or major bleeding-related events ([5]; single 10 mg doses, fed and fasted): no serious AEs or major bleeding-related events
mean % change from baseline in maximum INR ([7]; 10 mg dose): 19.5%
mean % change from baseline in maximum INR ([7]; 25 mg dose): 44.1%
mean maximum INR ([7]; 25 mg dose): 1.45
mean % change from baseline in maximum INR ([7]; 50 mg dose): 55.8%
mean maximum INR ([7]; 50 mg dose): 1.71
peak INR increase from baseline ([7]; after a 50 mg dose): 1.6 fold
time until changes in pharmacodynamic parameters were evident ([7]; following a single dose, clotting assay parameters (INR, aPTT and mPT)): less than 1 h
dose proportionality of Cmax, AUC(0,∞) and AUC(0,t) (0.5–50 mg): increased approximately proportionally to dose
subjects with bleeding-related AEs ([10]; haematochezia at 25 mg (one), haematuria at 50 mg (two), all mild): Three subjects had bleeding-related AEs
serious AEs or major bleeding-related events ([10]; single oral doses 0.5–50 mg): no serious AEs or major bleeding-related events
dose-limiting AEs ([10]; single oral doses of up to 50 mg): No dose-limiting AEs were observed
antithrombotic effects (venous thrombosis): potent antithrombotic effects
mean % change from baseline in maximum mPT ([11]; 2.5 mg dose): 35.0%
mean % change from baseline in maximum mPT ([11]; 5 mg dose): 42.9%
mean % change from baseline in maximum mPT ([11]; 10 mg dose): 87.1%
mean % change from baseline in maximum mPT ([11]; 25 mg dose): 135.3%
mean % change from baseline in maximum mPT ([11]; 50 mg dose): 187.1%
peak mPT increase from baseline ([11]; after a 50 mg dose): 2.9 fold
aPTT Mean (SD) ([12]; fasted, n = 23): 32.96 (3.59)
aPTT Mean (SD) change from baseline ([12]; fasted, n = 23): 3.05 (2.59)
aPTT Mean (SD) ([12]; fed, n = 22): 31.55 (3.02)
aPTT Mean (SD) change from baseline ([12]; fed, n = 22): 2.90 (2.21)

Compound: [H]/N=C(/N)c1ccc(NCc2nc3cc(C(=O)N(CCC(=O)O)c4ccccn4)ccc3n2C)cc1 [dabigatran]
effect of food on extent of absorption [13]: did not affect the extent of absorption

Compound: O=C(NC[C@H]1CN(c2ccc(N3CCOCC3=O)cc2)C(=O)O1)c1ccc(Cl)s1 [rivaroxaban]
increase in AUC(0,∞) with food [14, 15]: 28%
increase in Cmax with food [14, 15]: 41%
increase in AUC(0,∞) with food [14, 16]: 23%
increase in Cmax with food [14, 16]: 74%
